“And” between values parts separate entries of the source, which are not always exact repeats. Equal entries are not always repeated.
Key:
[1] = cited from earlier work
[2] = Particle size diameter, ENT-100-D, heater element leads lengthened, with or without MARK V adder; assay type: physicochemical; settings: foam replaced w/SS screen, flow 2.04-2.06 LPM, 2 amps
Description: This example describes the particle size diameters (PSD) of aerosols generated from a heater element as described in FIG. 36. The length of the leads in this example is 0.70 inches (about 17.78 mm). The heater element is inserted into the device depicted in FIG. 31D. […] In this example, the liquid formulation comprises propylene glycol and it wicks onto the ends of the wire of the heater element and onto the brass contacts.

[3] = Aerosol particle size from test airway apparatus with stainless steel foil heater element; assay type: physicochemical; settings: dose 1 mg
Description: A hole to deposite drug (2706a) is provided and foil is shown (2708a). Brass contacts (2710a) are provided.

[4] = Particle size diameter of aerosols from ENT-100-A/B/C devices with wire coil heater elements and bypass inlets; assay type: physicochemical; settings: 1 sec, listed as propylene glycol formulation
Description: This example describes the particle size diameters (PSD) of aerosols generated from a device comprising a heater element comprising a wire coil. […] The “A Coil” comprises a stretch of coil followed by a straight lead on either end of the coil which connects to the brass contacts. The “B Coil” comprises a stretch of coil, wherein the coil itself connects to the brass contacts.

[5] = Aerosol particle size from test apparatus with wire coil heater element; assay type: physicochemical; settings: stainless steel coil heater, 3.5 coils; air flow 2 Liters/min; dose 1 mg; 2.5 Amps; 1 second
[6] = Effect of gravity (device rotation) on particle size diameter, ENT-100-D; assay type: physicochemical; settings: ENT-100-D loaded with 2 mg; device rotated 90 degrees in all dimensions from baseline
Description: The device is rotated 90 degrees in all dimensions from a stable baseline position. […] As a result, the device produces particles of a consistent size regardless of the orientation in space of the device.

Compound | time to achieve peak increments of plasma nicotine concentration ([1]; smoking a cigarette) [min] | peak increments of plasma nicotine concentration ([1]; smoking a single cigarette) [ng/mL] | PSD (microns) ([2]; flow 2.04 LPM) | PSD (microns) ([2]; flow 2.05 LPM) | PSD (microns) ([2]; flow 2.06 LPM) | Particle Size Diameter (microns) ([3]; heater element thickness 0.0005 inches, air flow 1 Liters/min, 6 Amps, heating 1 second) | Particle Size Diameter (microns) ([3]; heater element thickness 0.0005 inches, air flow 1 Liters/min, 8 Amps, heating 0.5 seconds) | Particle Size Diameter (microns) ([3]; heater element thickness 0.001 inches, air flow 1 Liters/min, 8 Amps, heating 0.7 seconds) | Particle Size Diameter (microns) ([3]; heater element thickness 0.001 inches, air flow 3 Liters/min, 7 Amps, heating 1 second) | Particle Size Diameter (microns) ([3]; heater element thickness 0.001 inches, air flow 3 Liters/min, 10 Amps, heating 1 second) | Particle Size Diameter (microns) ([3]; heater element thickness 0.001 inches, air flow 6 Liters/min, 10 Amps, heating 1 second) | Particle Size Diameter (microns) ([3]; heater element thickness 0.001 inches, air flow 12 Liters/min, 10 Amps, heating 1 second) | PSD (microns) ([4]; B Coil, dose 2 mg, 2.0 amps, heater element moved aft, B configuration (total flow 12 LPM), flow 1.5-1.60 LPM, flow 1.5 LPM) | PSD (microns) ([4]; B Coil, dose 2 mg, 2.0 amps, heater element moved aft, B configuration (total flow 12 LPM), flow 1.5-1.60 LPM, flow 1.60 LPM) | PSD (microns) ([4]; ENT-100-B with B Coil, dose 2 mg, 2.0 amps, bypass untaped, total flow ~8.5 LPM, flow 1.5-1.52 LPM, flow 1.5 LPM) | PSD (microns) ([4]; ENT-100-B with B Coil, dose 2 mg, 2.0 amps, with stainless steel (SS) screen to even flow, flow 1.55-1.56 LPM, flow 1.56 LPM) | PSD (microns) ([4]; ENT-100-C, new heater element .032 ID 0.100 stretch, 2 mg dose, flow 2.04 LPM, 2.6 amps) | Particle Size Diameter (microns) [5] | particle size diameter at each rotation [6]
CN1CCCC1c1cccnc1 (stereo not shown) [nicotine] | ≤ 10 | 5 to 30 |  |  |  |  |  |  |  |  |  |  |  |  |  |  |  |  | 
CC(O)CO (stereo not shown) [PG, propylene glycol] |  |  | 2.7-3.0 microns and 2.8-3.0 microns | 2.6-2.8 microns | 3.0-3.1 microns | 2.1-3 microns | 2 | 1 | 1.8 microns and 2 microns and 1.5-1.8 microns and 1.4-1.8 microns | 1 microns and 0.9 microns | 0.6 microns and 0.6-0.8 microns | 0.5 | 1.7-1.8 microns | 1.7-1.75 microns | 1.8-1.9 microns | 2.6-2.9 microns | 2.0-2.5 microns and 2.0-2.2 microns and 2.1-2.3 microns and 2.1-2.2 microns | 1.5-2.2 microns | found not to change

Reference: patent publication US20140190496A1, “METHODS AND DEVICES FOR COMPOUND DELIVERY” (priority 2012, published 2014)
